Laboratory results from patent publication US20230157289A1, “HERBICIDAL PHENYLURACILS” (BASF-SE, priority 2020, published 2023).
Like-named read-outs stand apart in the source and are kept apart here.

How the values were obtained:
Assay type in all cases: in vivo
Avena fatua = experiment: greenhouse post-emergence herbicidal test, AVEFA; conditions: application rate 2 g/ha, scale from 0 to 100
Excerpt: (§1) The culture containers used were plastic flowerpots containing loamy sand with approximately 3.0% of humus as the substrate. The seeds of the test plants were sown separately for each species.
(§2) For the pre-emergence treatment, the active ingredients, which had been suspended or emulsified in water, were applied directly after sowing by means of finely distributing nozzles. The containers were irrigated gently to promote germination and growth and subsequently covered with transparent plastic hoods until the test plants had rooted. This cover caused uniform germination of the test plants, unless this had been impaired by the active ingredients. For the post-emergence treatment, the test plants were first grown to a height of 3 to 15 cm, depending on the plant habit, and only then treated with the active ingredients which had been suspended or emulsified in water. For this purpose, the test plants were either sown directly and grown in the same containers, or they were first grown separately as seedlings and transplanted into the test containers a few days prior to treatment.
(§3) Depending on the species, the test plants were kept at 10 - 25° C. or 20 - 35° C., respectively. The test period extended over 2 to 4 weeks. During this time, the test plants were tended, and their response to the individual treatments was evaluated.
(§4) Evaluation was carried out using a scale from 0 to 100. 100 means no emergence of the test plants, or complete destruction of at least the aerial moieties, and 0 means no damage, or normal course of growth. A good herbicidal activity is given at values of at least 70 and a very good herbicidal activity is given at values of at least 85.

Alopecurus myosuroides = experiment: greenhouse post-emergence herbicidal test, ALOMY; conditions: scale from 0 to 100
Excerpt: as §1, §2, §3, §4

Lolium multiflorum = experiment: greenhouse post-emergence herbicidal test, LOLMU; conditions: scale from 0 to 100
Excerpt: as §1, §2, §3, §4

Echinocloa crus-galli = experiment: greenhouse post-emergence herbicidal test, ECHCG; conditions: scale from 0 to 100
Excerpt: as §1, §2, §3, §4

Chenopodium album = experiment: greenhouse post-emergence herbicidal test, CHEAL
Excerpt: as §1, §2, §3, §4

Amaranthus retroflexus = experiment: greenhouse post-emergence herbicidal test, AMARE
Excerpt: as §1, §2, §3, §4

Setaria viridis = experiment: greenhouse post-emergence herbicidal test, SETVI
Excerpt: as §1, §2, §3, §4

[1] = application rate 16 g/ha, CHEAL, scale from 0 to 100, read-out: herbicidal activity
[2] = application rate 16 g/ha, AMARE, scale from 0 to 100, read-out: herbicidal activity
[3] = application rate 16 g/ha, SETVI, scale from 0 to 100, read-out: herbicidal activity

## COC(=O)C(OC)Oc1ccccc1Oc1nc(-n2c(=O)cc(C(F)(F)F)n(C)c2=O)c(F)cc1Br (centres unmarked) [cmpd I.a.646 (WO 17/202768)]
Avena fatua
  damages: 40
Alopecurus myosuroides; application rate 4 g/ha
  damages: 50
Alopecurus myosuroides; application rate 8 g/ha
  damages: 70
Lolium multiflorum; application rate 4 g/ha
  damages: 60
Lolium multiflorum; application rate 8 g/ha
  damages: 65
Echinocloa crus-galli; application rate 1 g/ha
  damages: 25
Echinocloa crus-galli; application rate 2 g/ha
  damages: 65

## COC(=O)C(OC)Oc1ccccc1Oc1cc(-n2c(=O)c(C)c(C(F)(F)F)n(C)c2=O)c(F)cc1Br (racemic) [example 11, methyl rac-2-[2-[2-bromo-5-[3,5-dimethyl-2,6-dioxo-4-(trifluoromethyl)pyrimidin-1-yl]-4-fluoro-phenoxy]phenoxy]-2-methoxy-acetate]
Chenopodium album; [1]
  pest or weed control at 16 g/ha: > 85%
Amaranthus retroflexus; [2]
  pest or weed control at 16 g/ha: > 85%
Setaria viridis; [3]
  pest or weed control at 16 g/ha: > 85%

## COC(Oc1ccccc1Oc1cc(-n2c(=O)cc(C(F)(F)F)n(C)c2=O)c(F)cc1Br)C(=O)NS(C)(=O)=O (racemic) [example 8, rac-2-[2-[2-bromo-4-fluoro-5-[3-methyl-2,6-dioxo-4-(trifluoromethyl)pyrimidin-1-yl]phenoxy]phenoxy]-2-methoxy-N-methylsulfonyl-acetamide]
Chenopodium album; [1]
  pest or weed control at 16 g/ha: > 85%
Amaranthus retroflexus; [2]
  pest or weed control at 16 g/ha: > 85%
Setaria viridis; [3]
  pest or weed control at 16 g/ha: > 85%

## COC(=O)C(Oc1ccccc1Oc1cc(-n2c(=O)cc(C(F)(F)F)n(C)c2=O)c(F)cc1Br)SC (racemic) [example 9, methyl rac-2-[2-[2-bromo-4-fluoro-5-[3-methyl-2,6-dioxo-4-(trifluoromethyl)pyrimidin-1-yl]phenoxy]phenoxy]-2-methylsulfanyl-acetate]
Chenopodium album; [1]
  pest or weed control at 16 g/ha: > 85%
Amaranthus retroflexus; [2]
  pest or weed control at 16 g/ha: > 85%
Setaria viridis; [3]
  pest or weed control at 16 g/ha: > 85%

## CCOC(=O)C(F)Oc1ccccc1Oc1cc(-n2c(=O)cc(C(F)(F)F)n(C)c2=O)c(F)cc1Br (racemic) [example 10, ethyl rac-2-[2-[2-bromo-4-fluoro-5-[3-methyl-2,6-dioxo-4-(trifluoromethyl)pyrimidin-1-yl]phenoxy]phenoxy]-2-fluoro-acetate]
Chenopodium album; [1]
  pest or weed control at 16 g/ha: > 85%
Amaranthus retroflexus; [2]
  pest or weed control at 16 g/ha: > 85%
Setaria viridis; [3]
  pest or weed control at 16 g/ha: > 85%

## C#CCOC(=O)C(OC)Oc1ccccc1Oc1cc(-n2c(=O)cc(C(F)(F)F)n(C)c2=O)c(F)cc1Br (racemic) [example 5, prop-2-ynyl rac-2-[2-[2-bromo-4-fluoro-5-[3-methyl-2,6-dioxo-4-(trifluoromethyl)pyrimidin-1-yl]phenoxy]phenoxy]-2-methoxy-acetate]
Chenopodium album; [1]
  pest or weed control at 16 g/ha: > 85%
Amaranthus retroflexus; [2]
  pest or weed control at 16 g/ha: > 85%
Setaria viridis; [3]
  pest or weed control at 16 g/ha: > 85%

## COC(=O)C(OC)Oc1ncccc1Oc1cc(-n2c(=O)cc(C(F)(F)F)n(C)c2=O)c(F)cc1Br (racemic) [example 12, methyl rac-2-[[3-[2-bromo-4-fluoro-5-[3-methyl-2,6-dioxo-4-(trifluoromethyl)pyrimidin-1-yl]phenoxy]-2-pyridyl]oxy]-2-methoxy-acetate]
Chenopodium album; [1]
  pest or weed control at 16 g/ha: > 85%
Amaranthus retroflexus; [2]
  pest or weed control at 16 g/ha: > 85%

## C=CCOC(=O)C(OC)Oc1ccccc1Oc1cc(-n2c(=O)cc(C(F)(F)F)n(C)c2=O)c(F)cc1Br (racemic) [example 4, allyl rac-2-[2-[2-bromo-4-fluoro-5-[3-methyl-2,6-dioxo-4-(trifluoromethyl)pyrimidin-1-yl]phenoxy]phenoxy]-2-methoxy-acetate]
Chenopodium album; [1]
  pest or weed control at 16 g/ha: > 85%
Amaranthus retroflexus; [2]
  pest or weed control at 16 g/ha: > 85%
Setaria viridis; [3]
  pest or weed control at 16 g/ha: > 85%

## COC(=O)C(OC)Oc1ccccc1Oc1cc(-n2c(=O)cc(C(F)(F)F)n(C)c2=O)c(F)cc1Br (centres unmarked) [example 1, Methyl 2-[2-[2-bromo-4-fluoro-5-[3-methyl-2,6-dioxo-4-(trifluoromethyl)pyrimidin-1-yl]phenoxy]phenoxy]-2-methoxy-acetate]
Avena fatua
  damages: 85
Chenopodium album; read-out: herbicidal activity
  pest or weed control at 16 g/ha: > 85%
Alopecurus myosuroides; application rate 4 g/ha
  damages: 95
Alopecurus myosuroides; application rate 8 g/ha
  damages: 95
Amaranthus retroflexus; read-out: herbicidal activity
  pest or weed control at 16 g/ha: > 85%
Setaria viridis; read-out: herbicidal activity
  pest or weed control at 16 g/ha: > 85%
Lolium multiflorum; application rate 4 g/ha
  damages: 75
Lolium multiflorum; application rate 8 g/ha
  damages: 85
Echinocloa crus-galli; application rate 1 g/ha
  damages: 90
Echinocloa crus-galli; application rate 2 g/ha
  damages: 98

## COCCOC(=O)C(OC)Oc1ccccc1Oc1cc(-n2c(=O)cc(C(F)(F)F)n(C)c2=O)c(F)cc1Br (racemic) [example 6, 2-methoxyethyl rac-2-[2-[2-bromo-4-fluoro-5-[3-methyl-2,6-dioxo-4-(trifluoromethyl)pyrimidin-1-yl]phenoxy]phenoxy]-2-methoxy-acetate]
Chenopodium album; [1]
  pest or weed control at 16 g/ha: > 70%
Amaranthus retroflexus; [2]
  pest or weed control at 16 g/ha: > 85%
Setaria viridis; [3]
  pest or weed control at 16 g/ha: > 70%

## COC(=O)C(OC)Oc1ccccc1Oc1cc(-n2c(=O)cc(C(F)(F)F)n(C)c2=O)c(F)cc1Cl (centres unmarked) [cmpd 3 (WO 11/137088)]
Avena fatua
  damages: 65
Alopecurus myosuroides; application rate 4 g/ha
  damages: 75
Alopecurus myosuroides; application rate 8 g/ha
  damages: 80
Lolium multiflorum; application rate 4 g/ha
  damages: 60
Lolium multiflorum; application rate 8 g/ha
  damages: 75
Echinocloa crus-galli; application rate 1 g/ha
  damages: 45
Echinocloa crus-galli; application rate 2 g/ha
  damages: 90
